A word on the IC50: it is the point on the concentration scale where inhibition reaches its midpoint.

This assay deals with ArlS histidine kinase (ArlSHK) (Staphylococcus aureus, UniProt Q9KJN3). The experiment in a line: Kinase-Glo luminescent ATPase/kinase assay with purified ArlSHK, […] ATP, dose-response. The assay is classed as biochemical. For orientation: In Kinase-Glo more light means more ATP remaining.
ArlS histidine kinase (ArlSHK), sequence (Q9KJN3 239-451): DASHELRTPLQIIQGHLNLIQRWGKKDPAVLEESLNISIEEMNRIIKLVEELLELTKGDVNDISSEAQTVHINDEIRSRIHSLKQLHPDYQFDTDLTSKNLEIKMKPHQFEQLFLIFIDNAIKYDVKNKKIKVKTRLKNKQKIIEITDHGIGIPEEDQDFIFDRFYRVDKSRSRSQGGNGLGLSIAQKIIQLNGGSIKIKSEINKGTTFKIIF

For `CC[C@H]1OC(=O)C[C@@H](O)[C@H](C)[C@@H](O[C@@H]2O[C@H](C)[C@@H](O)[C@H](N(C)C)[C@H]2O)[C@@H](CCN2C[C@H](C)C[C@H](C)C2)C[C@@H](C)C(=O)/C=C/C(C)=C/[C@@H]1CO[C@@H]1O[C@H](C)[C@@H](O)[C@@H](OC)[C@H]1OC` [tilmicosin], 1090 nM corresponded to half-maximal inhibition (IC50).

(Values after PMC10891534, “The Staphylococcus aureus ArlS Kinase Inhibitor Tilmicosin Has Potent Anti-Biofilm Activity in Both Static and Flow Conditions” (Microorganisms, 2024).)
